Experiment [1] has as its system Listeria monocytogenes. The experiment in a line: Antibacterial activity against Listeria monocytogenes isolated from humans harboring cat gene. Type of experiment: functional.
Experiment [2] relates to Listeria monocytogenes. The experiment can be described thus: Antibacterial activity against Listeria monocytogenes isolated from humans harboring lde gene.
The subject of experiment [3] is Listeria monocytogenes. The experiment can be described thus: Antibacterial activity against Listeria monocytogenes isolated from humans with putative chromosomal mutation. Type of experiment: functional.
The subject of experiment [4] is Listeria monocytogenes. The experiment in a line: Antibacterial activity against Listeria monocytogenes isolated from humans harboring tet(M) gene. It is filed as functional.
Experiment [5] concerns Listeria monocytogenes. The experiment can be described thus: Antibacterial activity against Listeria monocytogenes isolated from humans harboring int-tn gene. It is filed as functional.
For experiment [6], the system named is Listeria monocytogenes. The experiment in a line: Antibacterial activity against Listeria monocytogenes isolated from humans harboring putative ribosomal mutation. It is filed as functional.
Experiment [7] relates to Listeria monocytogenes. The experiment in a line: Antibacterial activity against Listeria monocytogenes isolated from humans harboring mutant dfrD gene.

In brackets after ≈: the same amount, converted by molar mass. Bounds are passed on as bounds.

These results are taken from ChEMBL document CHEMBL1671693, “Antimicrobial resistance of Listeria monocytogenes strains isolated from humans in France” (2010).

With `O=C(N[C@H](CO)[C@H](O)c1ccc([N+](=O)[O-])cc1)C(Cl)Cl` [CHLORAMPHENICOL], inhibition of growth in experiment [1] (MIC) required 48 µg/mL (≈ 149 µM).

Take `O=C(O)c1cn(C2CC2)c2cc(N3CCNCC3)c(F)cc2c1=O` [CIPROFLOXACIN]: the MIC (commonly the smallest concentration in the dilution series that meets the test's criterion for growth inhibition) in experiment [2] is more than 6 µg/mL.

As to `CC[C@H]1OC(=O)[C@H](C)[C@@H](O[C@H]2C[C@@](C)(OC)[C@@H](O)[C@H](C)O2)[C@H](C)[C@@H](O[C@@H]2O[C@H](C)C[C@H](N(C)C)[C@H]2O)[C@](C)(O)C[C@@H](C)C(=O)[C@H](C)[C@@H](O)[C@]1(C)O` [ERYTHROMYCIN], inhibition of growth in experiment [3] (MIC) required 256 µg/mL (≈ 349 µM).

`CN(C)c1ccc(O)c2c1C[C@H]1C[C@H]3[C@H](N(C)C)C(O)=C(C(N)=O)C(=O)[C@@]3(O)C(O)=C1C2=O` [MINOCYCLINE]: the MIC in experiment [4] and in experiment [5] was 8 µg/mL (≈ 17.5 µM) in each case.

With `CN[C@@H]1[C@H](O[C@H]2[C@H](O[C@H]3[C@H](O)[C@@H](O)[C@H](N=C(N)N)[C@@H](O)[C@@H]3N=C(N)N)O[C@@H](C)[C@]2(O)C=O)O[C@@H](CO)[C@H](O)[C@H]1O` [STREPTOMYCIN], inhibition of growth in experiment [6] (MIC) required 256 µg/mL (≈ 440 µM).

Consider `CN(C)[C@@H]1C(O)=C(C(N)=O)C(=O)[C@@]2(O)C(O)=C3C(=O)c4c(O)cccc4[C@@](C)(O)[C@H]3C[C@@H]12` [TETRACYCLINE], for which the MIC in experiment [4] and in experiment [5] was 16 µg/mL (≈ 36 µM) each time.

In turn, `COc1cc(Cc2cnc(N)nc2N)cc(OC)c1OC` [TRIMETHOPRIM] displayed an MIC in experiment [7] of 1020 µg/mL (≈ 3530 µM).
